Measurements as given in publication PMC8728736, “A Reactivity-Based ^18F-Labeled Probe for PET Imaging of Oxidative Stress in Chemotherapy-Induced Cardiotoxicity” (Molecular Pharmaceutics, 2021).

How the values were obtained:
[1] = PET/CT imaging in rat model of doxorubicin-induced cardiotoxicity; type: in vivo, Wistar rats; details: PET, 30 min scan, doxorubicin n = 6, saline n = 4
Procedure: (§1) Male Wistar rats (280–300 g) were used in all experiments. Subcutaneous 7 day osmotic pumps (Alzet), containing either doxorubicin (Cambridge Bioscience, 30 mg/kg cumulative dose) or vehicle (sterile 0.9% NaCl), were inserted into rats under 2% isoflurane in 100% oxygen.
Wistar rats that had received either doxorubicin treatment (male, 267 ± 19 g, n = 6) or saline (male, 303 ± 9 g, n = 4) via osmotic pumps for 7 days were injected with ^18F-FPBT (2.6 ± 1.5 MBq) via the tail vein on the PET/CT scanner bed. The time of injection coincided with the beginning of PET acquisition in order to obtain dynamic tracer uptake information. PET scans with the chest area in the field of vision were acquired for 30 min, followed by a CT scan, after which the animals were sacrificed and organs harvested, weighed, and gamma-counted as for the biodistribution protocol. The hearts were frozen in liquid nitrogen for gamma counting and oxidative stress biomarker assays. The PET data was reconstructed into three frames: 0–3 min, 3–10 min, and 10–30 min. For the time–activity curve, the PET data was reconstructed into 1 min per frame in the first 5 min and then 5 min per frame between 5 and 30 min. […] Radioactivity uptake in the heart was calculated as a standard uptake value ratio (SUVR) between left ventricle and blood. […]

[2] = PET/CT imaging of healthy mice; type: in vivo, C57BL/6 mice; details: iv
Procedure: C57BL/6 mice (male, 25 ± 2 g, n = 3) were placed on the PET scanner bed and injected with ^18F-FPBT (1.7 ± 0.4 MBq) through the tail vein at the start time of PET acquisition. A dynamic PET scan was performed for 60 min, followed by a CT scan and ex vivo biodistribution. The PET data was reconstructed into 5 frames of 60 s, 3 frames of 300 s, and 4 frames of 600 s. Regions of interest (ROIs) were drawn and quantified using VivoQuant software (v3.0, inviCRO, LLC, Boston, USA). Organ uptake was calculated as standard uptake values (SUV), and data are reported as mean ± SD.

[3] = Ex vivo biodistribution in doxorubicin-treated and control rats after PET; set-up: species or system Wistar rats; details: for Ex vivo biodistribution, Blood / Ex vivo biodistribution, Bone / Ex vivo biodistribution, Heart / Ex vivo biodistribution, Kidney / Ex vivo biodistribution, Large Intestine / Ex vivo biodistribution, Liver / Ex vivo biodistribution, Lung / Ex vivo biodistribution, Muscle / Ex vivo biodistribution, Small Intestine / Ex vivo biodistribution, Spleen / Ex vivo biodistribution, Urine: 40 min post-injection
Procedure: as §1
Wistar rats that had received either doxorubicin treatment (male, 267 ± 19 g, n = 6) or saline (male, 303 ± 9 g, n = 4) via osmotic pumps for 7 days were injected with ^18F-FPBT (2.6 ± 1.5 MBq) via the tail vein on the PET/CT scanner bed. The time of injection coincided with the beginning of PET acquisition in order to obtain dynamic tracer uptake information. PET scans with the chest area in the field of vision were acquired for 30 min, followed by a CT scan, after which the animals were sacrificed and organs harvested, weighed, and gamma-counted as for the biodistribution protocol. The hearts were frozen in liquid nitrogen for gamma counting and oxidative stress biomarker assays. The PET data was reconstructed into three frames: 0–3 min, 3–10 min, and 10–30 min. For the time–activity curve, the PET data was reconstructed into 1 min per frame in the first 5 min and then 5 min per frame between 5 and 30 min. Using VivoQuant software (v3.0, inviCRO, LLC, Boston, USA), regions of interest (ROIs) were drawn in the left ventricle and blood inside the myocardium. Radioactivity uptake in the heart was calculated as a standard uptake value ratio (SUVR) between left ventricle and blood. Data are reported as mean ± SD. Statistical analysis was performed using one-way ANOVA with Tukey’s multiple comparisons test.

Background retention in heart, lungs, spleen and brain [2]: low nonspecific background retention | Time to excretion by renal and hepatobiliary routes [2]: less than 1 h | Blood clearance ([2]; dynamic PET 60 min): fast blood clearance | Ex vivo biodistribution, Blood ([3]; Doxorubicin group, n = 6): 0.08 ± 0.06 % ID/g | Ex vivo biodistribution, Bone ([3]; Doxorubicin group, n = 6): 0.30 ±0.13 % ID/g | Ex vivo biodistribution, Heart ([3]; Doxorubicin group, n = 6): 0.43 ± 0.08 % ID/g | Ex vivo biodistribution, Kidney ([3]; Doxorubicin group, n = 6): 0.41 ± 0.14 % ID/g | Ex vivo biodistribution, Large Intestine ([3]; Doxorubicin group, n = 6): 1.42 ±2.07 % ID/g | Ex vivo biodistribution, Liver ([3]; Doxorubicin group, n = 6): 0.73 ± 0.24 % ID/g | Ex vivo biodistribution, Lung ([3]; Doxorubicin group, n = 6): 0.31 ± 0.12 % ID/g | Ex vivo biodistribution, Muscle ([3]; Doxorubicin group, n = 6): 0.10 ± 0.04 % ID/g | Ex vivo biodistribution, Small Intestine ([3]; Doxorubicin group, n = 6): 2.23 ± 1.43 % ID/g | Ex vivo biodistribution, Spleen ([3]; Doxorubicin group, n = 6): 0.15 ± 0.07 % ID/g | Ex vivo biodistribution, Urine ([3]; Doxorubicin group, n = 6): 12.5 ± 5.33 % ID/g | Ex vivo biodistribution, Blood ([3]; Saline group, n = 4): 0.07 ± 0.02 % ID/g | Ex vivo biodistribution, Bone ([3]; Saline group, n = 4): 0.25 ± 0.22 % ID/g | Ex vivo biodistribution, Heart ([3]; Saline group, n = 4): 0.42 ± 0.17 % ID/g | Ex vivo biodistribution, Kidney ([3]; Saline group, n = 4): 0.42 ± 0.19 % ID/g | Ex vivo biodistribution, Large Intestine ([3]; Saline group, n = 4): 0.38 ± 0.20 % ID/g | Ex vivo biodistribution, Liver ([3]; Saline group, n = 4): 0.65 ± 0.13 % ID/g | Ex vivo biodistribution, Lung ([3]; Saline group, n = 4): 0.29 ± 0.05 % ID/g | Ex vivo biodistribution, Muscle ([3]; Saline group, n = 4): 0.08 ± 0.02 % ID/g | Ex vivo biodistribution, Small Intestine ([3]; Saline group, n = 4): 3.33 ± 3.38 % ID/g | Ex vivo biodistribution, Spleen ([3]; Saline group, n = 4): 0.11 ± 0.02 % ID/g | Ex vivo biodistribution, Urine ([3]; Saline group, n = 4): 5.25 ± 3.05 % ID/g
SMILES: [18F]CCCN1c2ccccc2SC1c1ccccc1 (stereo not shown) [^18F-FPBT, 3-(3-[^18F]Fluoropropyl)-2-phenyl-2,3-dihydrobenzo[d]thiazole]
SUVR LV/blood (heart uptake) of doxorubicin-treated rats compared to vehicle control group [1]: statistically significantly (p < 0.05) higher | SUVR LV/blood (heart uptake) of doxorubicin-treated rats compared to vehicle control group ([1]; listed as 18F-FBPT): significantly higher (P < 0.05) uptake | Post-mortem heart uptake in doxorubicin-treated animals, in words ([3]; 30 min post IV injection): did not show an increased uptake
